Reference: ChEMBL document CHEMBL1914447, “Novel orally active antimalarial thiazoles” (J Med Chem, 2011)
pIC50: −log10 of the molar value. In brackets after ≈: the same amount, converted by molar mass.

How the values were obtained:
[1] = Kinetic solubility of the compound by nephelometry at pH 6.5; type: physicochemical; settings: buffer, read-out: Kinetic_solubility
[2] = Lipophilicity, log D of the compound by gradient HPLC at pH 3.0; type: physicochemical; settings: buffer
[3] = system: Plasmodium falciparum; experiment: microbe, parasite or virus in culture; settings: K1
[4] = Kinetic solubility of the compound by nephelometry at pH 2.0; type: physicochemical; settings: buffer, read-out: Kinetic_solubility
[5] = Lipophilicity, log D of the compound by gradient HPLC at pH 7.4; type: physicochemical; settings: buffer
[6] = system: Plasmodium falciparum; experiment: microbe, parasite or virus in culture; settings: NF54
[7] = system: Liver microsomes; experiment: Metabolic stability in rat liver microsomes at 1 uM by LC-MS analysis; type: ADME, Microsome
[8] = system: Liver microsomes; experiment: Metabolic stability in human liver microsomes at 1 uM by LC-MS analysis; type: ADME, Microsome
[9] = system: Liver; experiment: Metabolic stability in mouse liver microsomes at 1 uM by LC-MS analysis; type: ADME, Microsome
[10] = system: Plasmodium berghei; experiment: Antimalarial activity against GFP-transfected Plasmodium berghei ANKA infected in po dosed NMRI mouse assessed as reduction in parasitemia administered as single dose after 72 hrs by flow cytometry; type: functional
[11] = system: Plasmodium berghei; experiment: Antimalarial activity against GFP-transfected Plasmodium berghei ANKA infected in NMRI mouse assessed as reduction in parasitemia at 10 mg/kg, po administered as single dose after 72 hrs by flow cytometry; type: functional; parameters: scale not given: the % may be the effect or the level left
[12] = system: Plasmodium berghei; experiment: Antimalarial activity against GFP-transfected Plasmodium berghei ANKA infected in NMRI mouse assessed as mean survival time at 100 mg/kg, po administered as single dose; type: functional
[13] = system: Plasmodium berghei; experiment: Antimalarial activity against GFP-transfected Plasmodium berghei ANKA infected in NMRI mouse assessed as mean survival time at 30 mg/kg, po administered as single dose; type: functional
[14] = system: Plasmodium berghei; experiment: Antimalarial activity against GFP-transfected Plasmodium berghei ANKA infected in NMRI mouse assessed as reduction in parasitemia at 30 mg/kg, po administered as single dose after 72 hrs by flow cytometry; type: functional; parameters: scale not given: the % may be the effect or the level left
[15] = system: Plasmodium berghei; experiment: Antimalarial activity against GFP-transfected Plasmodium berghei ANKA infected in NMRI mouse assessed as reduction in parasitemia at 100 mg/kg, po administered as single dose after 72 hrs by flow cytometry; type: functional; parameters: scale not given: the % may be the effect or the level left
[16] = system: Plasmodium berghei; experiment: Antimalarial activity against GFP-transfected Plasmodium berghei ANKA infected in NMRI mouse assessed as mean survival time at 10 mg/kg, po administered as single dose; type: functional

For NCc1csc(NC(=O)c2ccccn2)n1, the solubility kinetic [1] was greater than 100 µg/mL, the chromatographic logD [2] was 0.3 and the pIC50 [3] was less than 4.37. It also gave a solubility kinetic [4] greater than 100 µg/mL, a chromatographic logD [5] of 0.7 and a pIC50 [6] of less than 4.37.

NCc1csc(NC(=O)c2cc3ccccc3o2)n1 showed a solubility kinetic [1] of 50 µg/mL (≈ 183 µM), a chromatographic logD [2] of 1.1 and a pIC50 [3] of 4.44. The solubility kinetic [4] was greater than 100 µg/mL, the chromatographic logD [5] was 1.5 and the pIC50 [6] was less than 4.44.

For NCc1csc(NC(=O)c2ncccn2)n1, the solubility kinetic [1] was greater than 100 µg/mL, the chromatographic logD [2] was -0.2 and the pIC50 [3] was less than 4.37. It also gave a solubility kinetic [4] greater than 100 µg/mL, a chromatographic logD [5] of -0.1 and a pIC50 [6] of less than 4.37.

Work on C[C@H]1[C@H](OC(=O)CCC(=O)O)O[C@@H]2O[C@@]3(C)CC[C@H]4[C@H](C)CC[C@@H]1[C@@]24OO3 [ARTESUNATE] yielded a pIC50 [3] of 8.52 and a pIC50 [6] of 8.40.

COc1ccc(C(=O)Nc2nc(CN)cs2)cc1 gave a solubility kinetic [1] of 25 µg/mL (≈ 94.9 µM), a chromatographic logD [2] of 0.9 and a pIC50 [3] of 4.95. For the same compound, the solubility kinetic [4] was 50 µg/mL (≈ 190 µM), the chromatographic logD [5] was 1.2 and the pIC50 [6] was 4.88.

For NCc1csc(NC(=O)c2cn(Cc3ccccc3)nn2)n1, the solubility kinetic [1] was 25 µg/mL (≈ 79.5 µM), the chromatographic logD [2] was 1.1 and the pIC50 [3] was less than 5.50. For the same compound, the solubility kinetic [4] was 50 µg/mL (≈ 159 µM), the chromatographic logD [5] was 1.4 and the pIC50 [6] was less than 5.50.

With NCc1csc(NC(=O)c2cc3ccccc3[nH]2)n1 the solubility kinetic [1] was 25 µg/mL (≈ 91.8 µM), the chromatographic logD [2] was 1.1 and the pIC50 [3] was 4.65. For the same compound, the solubility kinetic [4] was greater than 100 µg/mL, the chromatographic logD [5] was 1.4 and the pIC50 [6] was 4.52.

Compound NCc1csc(NC(=O)c2cnn[nH]2)n1 has a solubility kinetic [1] greater than 100 µg/mL, a chromatographic logD [2] of -0.2 and a pIC50 [3] of less than 4.35. For the same compound, the solubility kinetic [4] was greater than 100 µg/mL, the chromatographic logD [5] was -0.3 and the pIC50 [6] was less than 4.35.

For NCc1csc(NC(=O)c2cnnn2Cc2ccccc2)n1, the solubility kinetic [1] was 50 µg/mL (≈ 159 µM), the chromatographic logD [2] was 1.3 and the pIC50 [3] was less than 5.50. The solubility kinetic [4] was greater than 100 µg/mL, the chromatographic logD [5] was 1.6 and the pIC50 [6] was less than 5.50.

In the case of CC(C)(C)c1cc(C(=O)Nc2ccncc2)n(Cc2ccccc2)n1, the Stability [7] was “Unstable”, the solubility kinetic [1] was 6.3 µg/mL (≈ 18.8 µM) and the chromatographic logD [2] was 2.6. For the same compound, the Stability [8] was “Unstable”, the pIC50 [3] was 5.15 and the solubility kinetic [4] was greater than 100 µg/mL. For the same compound, the Stability [9] was “Unstable”, the chromatographic logD [5] was 4 and the pIC50 [6] was 5.41.

In the case of CC(C)(C)c1cc(C(=O)Nc2ccccc2)n(Cc2ccccc2)n1, the Stability [7] was “Unstable”, the solubility kinetic [1] was 1.6 µg/mL (≈ 4.8 µM) and the chromatographic logD [2] was 4.7. The Stability [8] was “Unstable”, the pIC50 [3] was 4.96 and the solubility kinetic [4] was 1.6 µg/mL (≈ 4.8 µM). The Stability [9] was “Unstable”, the chromatographic logD [5] was 4.7 and the pIC50 [6] was 5.10.

Work on NCc1csc(NC(=O)c2ccc(Cl)cc2)n1 yielded a solubility kinetic [1] of 25 µg/mL (≈ 93.4 µM), a chromatographic logD [2] of 1.2 and a pIC50 [3] of 4.43. For the same compound, the solubility kinetic [4] was greater than 100 µg/mL, the chromatographic logD [5] was 1.6 and the pIC50 [6] was less than 4.43.

For CC(C)(C)c1cc(C(=O)Nc2ccccn2)n(Cc2ccccc2)n1, the Stability [7] was “Unstable”, the solubility kinetic [1] was 6.3 µg/mL (≈ 18.8 µM) and the chromatographic logD [2] was 4.5. The Stability [8] was “Unstable”, the pIC50 [3] was 4.99 and the solubility kinetic [4] was 25 µg/mL (≈ 74.8 µM). The Stability [9] was “Unstable”, the chromatographic logD [5] was 4.5 and the pIC50 [6] was 4.98.

With CNCc1csc(NC(=O)c2cc(C(C)(C)C)nn2Cc2ccccc2)n1 the Stability [7] was “Stable”, the solubility kinetic [1] was 12.5 µg/mL (≈ 32.6 µM) and the chromatographic logD [2] was 2.6. The Stability [8] was “Stable”, the pIC50 [3] was 6.72 and the solubility kinetic [4] was 25 µg/mL (≈ 65.2 µM). For the same compound, the Stability [9] was “Stable”, the chromatographic logD [5] was 3.8 and the pIC50 [6] was 6.80.

With CN(C)Cc1csc(NC(=O)c2cc(C(C)(C)C)nn2Cc2ccccc2)n1 the Stability [7] was “Unstable”, the solubility kinetic [1] was 25 µg/mL (≈ 62.9 µM) and the chromatographic logD [2] was 2.6. For the same compound, the Stability [8] was “Unstable”, the pIC50 [3] was 5.83 and the solubility kinetic [4] was greater than 100 µg/mL. The Stability [9] was “Unstable”, the chromatographic logD [5] was 4.2 and the pIC50 [6] was 5.62.

NCc1csc(NC(=O)c2ccccc2)n1 gave a solubility kinetic [1] of 25 µg/mL (≈ 107 µM), a chromatographic logD [2] of 0.7 and a pIC50 [3] of 4.37. For the same compound, the solubility kinetic [4] was greater than 100 µg/mL, the chromatographic logD [5] was 1 and the pIC50 [6] was less than 4.37.

NCc1csc(NC(=O)c2ccn[nH]2)n1 gave a solubility kinetic [1] greater than 100 µg/mL, a chromatographic logD [2] of 0 and a pIC50 [3] of less than 4.35. The solubility kinetic [4] was greater than 100 µg/mL, the chromatographic logD [5] was 0.1 and the pIC50 [6] was less than 4.35.

For NCc1csc(NC(=O)c2ccon2)n1, the solubility kinetic [1] was 50 µg/mL (≈ 223 µM), the chromatographic logD [2] was 0 and the pIC50 [3] was less than 4.35. It also gave a solubility kinetic [4] of 50 µg/mL (≈ 223 µM), a chromatographic logD [5] of -0.1 and a pIC50 [6] of less than 4.35.

With CC(=O)NCc1csc(NC(=O)c2cc(C(C)(C)C)nn2Cc2ccccc2)n1 the Stability [7] was “Unstable”, the solubility kinetic [1] was 12.5 µg/mL (≈ 30.4 µM) and the chromatographic logD [2] was 3.3. For the same compound, the Stability [8] was “Unstable”, the pIC50 [3] was 5.37 and the solubility kinetic [4] was 12.5 µg/mL (≈ 30.4 µM). For the same compound, the Stability [9] was “Unstable”, the chromatographic logD [5] was 3.3 and the pIC50 [6] was 5.20.

For CC(C)(C)c1cc(C(=O)Nc2cccnc2)n(Cc2ccccc2)n1, the Stability [7] was “Unstable”, the solubility kinetic [1] was 6.3 µg/mL (≈ 18.8 µM) and the chromatographic logD [2] was 3.5. For the same compound, the Stability [8] was “Unstable”, the pIC50 [3] was 5.19 and the solubility kinetic [4] was greater than 100 µg/mL. The Stability [9] was “Unstable”, the chromatographic logD [5] was 3.8 and the pIC50 [6] was 5.30.

NCc1csc(NC(=O)c2cccnn2)n1 showed a solubility kinetic [1] of 50 µg/mL (≈ 213 µM), a chromatographic logD [2] of 0 and a pIC50 [3] of 4.37. For the same compound, the solubility kinetic [4] was greater than 100 µg/mL, the chromatographic logD [5] was 0.2 and the pIC50 [6] was less than 4.37.

Work on NCc1csc(NC(=O)c2cc3ccccc3n2Cc2ccccc2)n1 yielded a solubility kinetic [1] of 1.6 µg/mL (≈ 4.41 µM), a chromatographic logD [2] of 2.4 and a pIC50 [3] of 5.16. It also gave a solubility kinetic [4] of 25 µg/mL (≈ 69 µM), a chromatographic logD [5] of 3 and a pIC50 [6] of 4.99.

For CC(C)(C)c1cc(C(=O)Nc2nc(CO)cs2)n(Cc2ccccc2)n1, the Stability [7] was “Unstable”, the solubility kinetic [1] was 3.1 µg/mL (≈ 8.37 µM) and the chromatographic logD [2] was 3.5. For the same compound, the Stability [8] was “Unstable”, the pIC50 [3] was 6.17 and the solubility kinetic [4] was 12.5 µg/mL (≈ 33.7 µM). The Stability [9] was “Unstable”, the chromatographic logD [5] was 3.4 and the pIC50 [6] was 6.15.

In the case of CC(C)(C)c1cc(C(=O)Nc2cccc(CN)c2)n(Cc2ccccc2)n1, the Stability [7] was “Stable”, the solubility kinetic [1] was 25 µg/mL (≈ 69 µM) and the chromatographic logD [2] was 2.2. The Stability [8] was “Stable”, the pIC50 [3] was 5.83 and the solubility kinetic [4] was greater than 100 µg/mL. The Stability [9] was “Stable”, the chromatographic logD [5] was 2.9 and the pIC50 [6] was 5.67.

For Cn1nc(C(C)(C)C)cc1C(=O)Nc1nc(CN)cs1, the solubility kinetic [1] was 50 µg/mL (≈ 170 µM), the chromatographic logD [2] was 1.2 and the pIC50 [3] was 4.47. For the same compound, the solubility kinetic [4] was greater than 100 µg/mL, the chromatographic logD [5] was 1.6 and the pIC50 [6] was less than 4.47.

Work on CCN(CC)CCCC(C)Nc1ccnc2cc(Cl)ccc12 (centres undefined) [CHLOROQUINE] yielded an ED50 [10] of 1.9 mg/kg, an ED90 [10] of 4.2 mg/kg and an Activity [11] of 99.5%. For the same compound, the MSD [12] was 12 days, the MSD [13] was 9 days and the Activity [14] was 99.7%. It also gave an Activity [15] greater than 99.9% and an MSD [16] of 7 days.

For CC(C)(C)c1cc(C(=O)Nc2nc(CNS(C)(=O)=O)cs2)n(Cc2ccccc2)n1, the Stability [7] was “Unstable”, the solubility kinetic [1] was 3.1 µg/mL (≈ 6.93 µM) and the chromatographic logD [2] was 3.7. The Stability [8] was “Unstable”, the pIC50 [3] was 5.53 and the solubility kinetic [4] was 3.1 µg/mL (≈ 6.93 µM). For the same compound, the Stability [9] was “Unstable”, the chromatographic logD [5] was 3.7 and the pIC50 [6] was 5.33.

With Cc1csc(NC(=O)c2cc(C(C)(C)C)nn2Cc2ccccc2)n1 the Stability [7] was “Unstable”, the solubility kinetic [1] was less than 1.6 µg/mL and the chromatographic logD [2] was 4.7. For the same compound, the Stability [8] was “Unstable”, the pIC50 [3] was 5.31 and the solubility kinetic [4] was less than 1.6 µg/mL. The Stability [9] was “Unstable”, the chromatographic logD [5] was 4.7 and the pIC50 [6] was 5.39.
